Results as given in US20080020977A1, “Use of Fullerenes to Oxidize Reduced Redox Proteins” (priority 2005, published 2008).

Tests used:
cytochrome c = assay: Oxidation state of cytochrome c in the xanthine/xanthine oxidase system (absorbance at 550 nm); format: biochemical; conditions: substituted fullerene added at time zero; versus blank without fullerene; data not shown
Description: The reduction of cytochrome c was performed by employing the xanthine/xanthine oxidase system. The reaction was initiated by the addition of xanthine oxidase (7.5×10^−3 units) to an incubation mixture containing 50 mM potassium phosphate, 0.1 mM EDTA, 0.01 mM cytochrome c, and 0.05 mM xanthine. Xanthine oxidase catalyzed the formation of superoxide radicals, which then reduced cytochrome c to the ferrous form. Reduction of cytochrome c was followed by recording the corresponding increase in the absorbance at 550 nm, using the molar absorption coefficients of 9 mmol^−1cm^−1 and 27.7 mmol^−1cm^−1 for the oxidized (ferric) and reduced (ferrous) forms, respectively. All assays were performed at room temperature. A volume of 3 mL was used in each experiment.
The effect of fullerenes on the oxidation state of cytochrome c was studied using substituted fullerenes C3 and DF-1, described above, wherein the substituted fullerene was added to the reaction mixture at 5, 10, or 15 minutes after addition of xanthine oxidase. Results are shown in FIG. 11, with time=0 for each run being the moment when the substituted fullerene was added. In the negative control, without fullerene (blank), reduction of cytochrome c (increase of absorbance at 550 nm) can be seen over 600 sec. […]

mice = conditions: oral, about 0.5 mg/kg/day, cited from earlier work

Substance: (C60(>C(COOH)2)3) [C3]
- extent and rate of reduction of cytochrome c (increase of absorbance at 550 nm) (cytochrome c): reduced
- mean survival (mice; controls 23.5+/−5.5 months): 28.7+/−3.3 months
- increase in mean survival relative to controls (mice; p=0.033): ~20%
